Among the data in US20110003994A1, “CYCLOALKANE DERIVATIVE” (Dainippon Sumitomo Pharma Co., Ltd., priority 2009, published 2011) are inhibition and ED50 values, retold here.

The target in the first data set is T1, human D2 receptor (Homo sapiens, UniProt P14416).
T1 construct: expressed in transfected cells
T1 sequence (P14416 whole entry): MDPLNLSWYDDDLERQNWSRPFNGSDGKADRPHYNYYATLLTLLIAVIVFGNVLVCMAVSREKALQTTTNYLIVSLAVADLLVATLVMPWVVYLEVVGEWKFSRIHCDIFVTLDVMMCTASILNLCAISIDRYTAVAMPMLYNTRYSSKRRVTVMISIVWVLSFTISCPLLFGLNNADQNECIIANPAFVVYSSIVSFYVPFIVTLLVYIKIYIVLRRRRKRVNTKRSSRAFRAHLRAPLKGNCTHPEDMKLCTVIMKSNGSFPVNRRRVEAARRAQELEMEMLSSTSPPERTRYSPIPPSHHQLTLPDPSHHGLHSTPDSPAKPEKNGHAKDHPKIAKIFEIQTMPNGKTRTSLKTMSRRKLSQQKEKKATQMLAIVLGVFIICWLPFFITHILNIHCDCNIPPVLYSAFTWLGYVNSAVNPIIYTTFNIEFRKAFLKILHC
The data set can be described thus: Binding assay for D2 receptor using [3H] spiperone. Conditions: test compound 100 nM, cell membrane expressing human D2 receptor, read-out: Binding inhibitory rate (%) for D2 receptor (100 nM). As for the experimental part: In general, there is clinically some correlation between antipsychotic action and antagonistic action for dopamine D2 receptor. The experimental method used herein is a binding assay for D2 receptor which is one of the tests evaluating D2 receptor action in vitro, According to the known method (e.g. Japan, J. Pharmacol., 53, 321-329 (1990)), the above-captioned experiment was carried out using [3H] spiperone, i.e., the binding amount of [3H] spiperone to the preparation cell membrane expressing human D2 receptor was measured, and then the binding inhibitory rate by the test compound (100 nM) was measured/calculated.
On to `O=C(NC[C@@H]1CCCC[C@H]1CN1CCN(c2nsc3cc(F)ccc23)CC1)c1ccc2c(c1)OCO2` [Example 82], for which the inhibition at 0.1 µM came to 94%.

With `O=C(/C=C/c1ccc2c(c1)OCO2)NC[C@@H]1CCCC[C@H]1CN1CCN(c2nsc3cc(F)ccc23)CC1` [Example 84], the inhibition at 0.1 µM was 95%.

In the case of `O=C1C2C3CCC(C3)C2C(=O)N1C[C@@H]1CCCC[C@H]1CN1CCC(c2noc3ccc(F)cc23)CC1` (stereo partly drawn) [Example 225], the inhibition at 0.1 µM was 94%.

Turning to `O=C1C2C3CCC(C3)C2C(=O)N1C[C@@H]1CCCC[C@H]1CN1CCC(c2noc3ccccc23)CC1` (stereo partly drawn) [Example 223], the inhibition at 0.1 µM was determined as 94%.

Turning to `C=C1[C@H](CNC(=O)/C=C/c2ccccc2C)[C@H]1CN1CCC(c2noc3cc(F)ccc23)CC1` [Example 185], the inhibition at 0.1 µM was found to be 92%.

Consider `O=C(/C=C/c1cccc(Cl)c1)NC[C@@H]1CCCC[C@H]1CN1CCC(c2noc3cc(F)ccc23)CC1` [Example 200], for which the inhibition at 0.1 µM is 92%.

Consider `COc1cccc(/C=C/C(=O)NC[C@@H]2CCCC[C@@H]2CN2CCN(c3nsc4ccccc34)CC2)c1OC` [Example 14], for which the inhibition at 0.1 µM worked out at 92%.

Regarding `O=C(NC[C@H]1CCC[C@@H]1CN1CCN(c2nsc3ccccc23)CC1)c1cccc(Oc2ccccc2)c1` [Example 87], the inhibition at 0.1 µM is 93%.

Regarding `C=C1[C@H](CNC(=O)c2ccc3c(c2)OCO3)[C@H]1CN1CCC(c2noc3cc(F)ccc23)CC1` [Example 192], the inhibition at 0.1 µM was 90%.

Take `O=C(NC[C@H]1CCCC[C@H]1CN1CCN(c2nsc3ccccc23)CC1)c1ccc2c(c1)OCO2` [Example 67]: the inhibition at 0.1 µM stood at 90%.

As to `COc1ccccc1/C=C/C(=O)NC[C@@H]1CCCC[C@@H]1CN1CCN(c2nsc3ccccc23)CC1` [Example 15], the inhibition at 0.1 µM came out at 93%.

For `O=C(/C=C/c1ccc2c(c1)OCO2)NC[C@@H]1CCCC[C@H]1CN1CCC(c2noc3cc(F)ccc23)CC1` [Example 222], the inhibition at 0.1 µM stood at 93%.

As to `O=S(=O)(NC[C@@H]1CCCC[C@H]1CN1CCC(c2n[nH]c3cc(F)ccc23)CC1)c1cccc(-c2ccccc2)c1` [Example 240], the inhibition at 0.1 µM worked out at 85%.

On to `COc1cccc(/C=C/C(=O)NC[C@H]2CCCC[C@H]2CN2CCN(c3nsc4ccccc34)CC2)c1OC` [Example 62], for which the inhibition at 0.1 µM stood at 91%.

For the compound `Cc1cccc(/C=C/C(=O)NC[C@@H]2CCCC[C@@H]2CN2CCN(c3nsc4ccccc34)CC2)c1` [Example 13], the inhibition at 0.1 µM turned out to be 92%.

`COc1ccccc1/C=C/C(=O)NC[C@H]1CCCC[C@@H]1CN1CCN(c2nsc3ccccc23)CC1` [Example 32]: the inhibition at 0.1 µM came to 91%.

`O=C(/C=C/c1ccccc1[N+](=O)[O-])NC[C@@H]1CCCC[C@H]1CN1CCC(c2n[nH]c3cc(F)ccc23)CC1` [Example 239]: the inhibition at 0.1 µM stood at 95%.

For `C=C1[C@H](CNS(=O)(=O)c2cccc(-c3ccccc3)c2)[C@H]1CN1CCC(c2noc3cc(F)ccc23)CC1` [Example 190], the inhibition at 0.1 µM amounted to 92%.

Take `O=C(/C=C/c1ccccc1[N+](=O)[O-])NC[C@@H]1CCCC[C@@H]1CN1CCN(c2nsc3ccccc23)CC1` [Example 16]: the inhibition at 0.1 µM was found to be 94%.

In the case of `COc1ccccc1/C=C/C(=O)NC[C@H]1C[C@@H]1CN1CCN(c2nsc3ccccc23)CC1` [Example 139], the inhibition at 0.1 µM was determined as 91%.

`O=C(Cc1ccc(Cl)cc1)NC[C@@H]1CCCC[C@H]1CN1CCC(c2n[nH]c3cc(F)ccc23)CC1` [Example 243]: the inhibition at 0.1 µM was 94%.

Take `O=C(NC[C@H]1CCC[C@@H]1CN1CCN(c2nsc3ccccc23)CC1)c1ccc2c(c1)OCO2` [Example 102]: the inhibition at 0.1 µM was found to be 95%.

As for `O=C(/C=C/c1ccccc1[N+](=O)[O-])NC[C@H]1CCCC[C@H]1CN1CCN(c2nsc3ccccc23)CC1` [Example 64], the inhibition at 0.1 µM was determined as 92%.

For `COc1ccc(OC)c(S(=O)(=O)NC[C@@H]2CCCC[C@H]2CN2CCC(c3n[nH]c4cc(F)ccc34)CC2)c1` [Example 241], the inhibition at 0.1 µM was 95%.

For the compound `O=C(/C=C/c1ccc2c(c1)OCO2)NC[C@@H]1CCCC[C@@H]1CN1CCN(c2nsc3ccccc23)CC1` [Example 21], the inhibition at 0.1 µM turned out to be 91%.

`O=C(NC[C@@H]1CCCC[C@H]1CN1CCC(c2n[nH]c3cc(F)ccc23)CC1)c1ccc2c(c1)OCO2` [Example 242]: the inhibition at 0.1 µM was 95%.

As to `Cc1ccccc1/C=C/C(=O)NC[C@H]1CCCC[C@H]1CN1CCN(c2nsc3ccccc23)CC1` [Example 60], the inhibition at 0.1 µM was found to be 91%.

Turning to `Cc1cccc(/C=C/C(=O)NC[C@H]2C[C@@H]2CN2CCN(c3nsc4ccccc34)CC2)c1` [Example 137], the inhibition at 0.1 µM was determined as 95%.

As to `O=C(/C=C/c1ccc2c(c1)OCO2)NC[C@H]1CCC[C@@H]1CN1CCN(c2nsc3ccccc23)CC1` [Example 104], the inhibition at 0.1 µM amounted to 92%.

Regarding `O=C(Cc1ccc(Cl)cc1)NC[C@H]1CCCC[C@@H]1CN1CCN(c2nsc3ccccc23)CC1` [Example 37], the inhibition at 0.1 µM is 90%.

In the case of `O=C(NC[C@H]1CCCC[C@@H]1CN1CCN(c2nsc3ccccc23)CC1)c1ccc2c(c1)OCO2` [Example 36], the inhibition at 0.1 µM was determined as 92%.

Regarding `O=C(/C=C/c1ccccc1F)NC[C@H]1CCCC[C@@H]1CN1CCN(c2nsc3ccccc23)CC1` [Example 44], the inhibition at 0.1 µM was 91%.

For the compound `O=S(=O)(NC[C@H]1CCC[C@@H]1CN1CCN(c2nsc3ccccc23)CC1)c1cccc(-c2ccccc2)c1` [Example 100], the inhibition at 0.1 µM came out at 91%.

On to `O=C(/C=C/c1ccc2c(c1)OCO2)NC[C@H]1CCCC[C@H]1CN1CCN(c2nsc3ccccc23)CC1` [Example 69], for which the inhibition at 0.1 µM was found to be 91%.

For `COc1ccc(OC)c(S(=O)(=O)NC[C@H]2CCC[C@@H]2CN2CCN(c3nsc4ccccc34)CC2)c1` [Example 101], the inhibition at 0.1 µM is 94%.

Take `O=C(NC[C@@H]1CCCC[C@H]1CN1CCC(c2noc3cc(F)ccc23)CC1)c1ccc2c(c1)OCO2` [Example 221]: the inhibition at 0.1 µM amounted to 93%.

`O=C1C2C3CCC(C3)C2C(=O)N1C[C@@H]1CCCC[C@H]1CN1CCN(c2nsc3cc(F)ccc23)CC1` (stereo partly drawn) [Example 85]: the inhibition at 0.1 µM is 91%.

As to `O=C(/C=C/c1ccccc1[N+](=O)[O-])NC[C@H]1CCCC[C@@H]1CN1CCN(c2nsc3ccccc23)CC1` [Example 33], the inhibition at 0.1 µM is 90%.

A further data set has as its system methamphetamine-induced movement of the rat. The data set can be described thus: Anti-methamphetamine test (movement measured with Supermex). Conditions: male rat, intraperitoneal, 30 min before methamphetamine 1 mg/kg i.p.; movement measured for 90 minutes; dose for 50% inhibition; read-out: Antidopaminergic action ED50. The data set is classed as in vivo. As for the experimental part:
The anti-methamphetamine test which is a typical in vivo test for evaluating antipsychotic action in the clinical study was carried out as follows. The test substance was intraperitoneally administered to a male rat, and 30 minutes later methamphetamine (1 mg/kg) was intraperitoneally administered to the male rat. Ten minutes after completing the administrations, the movement of the rat was measured with Supermex for 90 minutes, and the dose for 50% inhibition: ED50 value was calculated.
Regarding `O=C(/C=C/c1cccc(Cl)c1)NC[C@@H]1CCCC[C@H]1CN1CCC(c2noc3cc(F)ccc23)CC1` [Example 200], the median effective dose (ED50) was 0.24 mg/kg.

Take `O=C(NC[C@H]1CCC[C@@H]1CN1CCN(c2nsc3ccccc23)CC1)c1cccc(Oc2ccccc2)c1` [Example 87]: the 50% effective dose (ED50) came out at 4.5 mg/kg.

System in a further data set: not listed separately
The data set can be described thus: Cataleptic action (pole test). The note with it: in vivo, ip; male rat, intraperitoneal, one hour after administration; dose inducing catalepsy in 50% of the rats. As for the experimental part: The cataleptic action which is a typical central nervous system side-effect of antipsychotic agents in the clinical study was evaluated as follows. The test substance was intraperitoneally administered to a male rat. One hour later, the rat was made to hold on a pole three times which is horizontally set at a height of 9 cm. When the rat retained the unnatural stretched pose for 30 seconds even one time out of three times, the rat was evaluated as cataleptic positive. The dose for inducing 50% the rats to the catalepsy: ED50 value was calculated.
Take `O=C(/C=C/c1cccc(Cl)c1)NC[C@@H]1CCCC[C@H]1CN1CCC(c2noc3cc(F)ccc23)CC1` [Example 200]: the 50% effective dose (ED50) at 1 h was above 7.2 mg/kg.

Compound `O=C(NC[C@H]1CCC[C@@H]1CN1CCN(c2nsc3ccccc23)CC1)c1cccc(Oc2ccccc2)c1` [Example 87] had an ED50 at 1 h above 135 mg/kg.
